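Step 1: Grow cells in 96-well plates. Step 2: Expose to compound for 48 hours at 5 concentrations. Step 3: Interpolate endpoints linearly; if unreached, use highest concentration. Here, GI50 denotes the concentration required for 50% inhibition of growth. Definition used: TGI = concentration required for complete inhibition of growth.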
Tests used:
Test in all cases: inhibition of tumour cell growth, NCI panel, 48 h
NCI/ADR-RES ovarian = system: NCI/ADR-RES ovarian
CAKI-1 renal = system: CAKI-1 renal
HOP-62 NSCLC = system: HOP-62 NSCLC
PC-3 prostate = system: PC-3 prostate
SF-295 CNS = system: SF-295 CNS
HCT-116 colon = system: HCT-116 colon
IGROV1 ovarian = system: IGROV1 ovarian
NCI-H522 lung = system: NCI-H522 lung

Structure (SMILES) | GI50 (NCI/ADR-RES ovarian) [µM] | TGI (NCI/ADR-RES ovarian) [µM] | GI50 (CAKI-1 renal) [µM] | TGI (CAKI-1 renal) [µM] | GI50 (HOP-62 NSCLC) [µM] | TGI (HOP-62 NSCLC) [µM] | GI50 (PC-3 prostate) [µM] | TGI (PC-3 prostate) [µM] | GI50 (SF-295 CNS) [µM] | TGI (SF-295 CNS) [µM] | GI50 (HCT-116 colon) [µM] | TGI (HCT-116 colon) [µM] | GI50 (IGROV1 ovarian) [µM] | TGI (IGROV1 ovarian) [µM] | GI50 (NCI-H522 lung) [µM] | TGI (NCI-H522 lung) [µM]
Cc1cn2c(/C=C3/C(=O)Nc4ccc(F)cc43)c(C)nc2s1 | 1.7 | 7.26 | 9.21 | > 50 | 8.81 | > 50 | 9.51 | > 50 | 3.76 | 34.6 | 2.92 | > 50 | 2.14 | 25 | 3.22 | 18.7
CN1CCN(Cc2ccc(NC(=O)c3cncc(C#Cc4cnn5ccccc45)c3)cc2C(F)(F)F)CC1 | 1.4 | 5.51 | 0.94 | 4.56 | 0.939 | 2.93 | 1.01 | 4.19 | 0.916 | 3.35 | 0.294 | 1.47 | 0.858 | 3.61 | 0.838 | 2.27
C=C1C(=O)OC2CC3(C)CCCC(C)C3=CC12 (stereo not drawn) | – | 56.7 | – | 9.27 | – | – | – | 39.2 | – | 26.3 | – | 15.5 | – | 22.4 | – | 3.97
COC(=O)c1ccc2c(c1)c1c(C)c3ccncc3c(C)c1n2C | 0.411 | 62.7 | – | – | 0.106 | > 100 | 0.3 | > 100 | 0.0647 | 7.48 | 0.0495 | > 100 | 0.0801 | > 100 | 0.538 | 32
CC[C@@H](C)Nc1cc(C(=O)NC2CC3CCC(C2)N3c2ccc(C(=O)C3CC3)cn2)c(C)cc1C(N)=O (stereo partly drawn) | 1.06 | > 100 | 0.0597 | > 100 | 0.0598 | > 100 | 0.0469 | > 100 | 0.0288 | > 100 | 0.03 | > 100 | 0.0436 | > 100 | 0.0451 | 41.8
CCc1nc2cc(/C=C/C(=O)NO)ccc2c(=O)n1CCc1ccc(F)cc1 | 0.577 | 3.15 | 2.27 | 6.12 | 1.5 | 4.44 | 2.92 | > 100 | 1.87 | 3.61 | 0.49 | 2.93 | – | – | 1.34 | 4.06
C1CCN2CC3CCCN4CCCC(C2C1)C34 (stereo not drawn) | – | > 100 | – | > 100 | – | > 100 | – | > 100 | – | > 100 | – | > 100 | – | > 100 | – | > 100
CCCN1C(=O)/C(=C/c2ccc(O)cc2)SC1=Nc1ccc(OC)cc1 | 14 | 29.5 | 12.9 | 27.8 | 28 | 80 | 14 | 31.7 | 14.7 | 34.9 | 14.2 | 29.3 | 30 | > 100 | 39.9 | > 100
O=c1c(-c2ccc(O)cc2)coc2cc(OC3OC(CO)C(O)C(O)C3O)cc(O)c12 (stereo not drawn) | – | > 10 | > 10 | > 100 | > 100 | > 100 | – | > 100 | – | > 100 | – | > 100 | > 100 | > 100 | – | > 100
CC(C)(C)c1ccc(O)c(CN(Cc2cc(C(C)(C)C)ccc2O)C2CCCCC2)c1 | – | 42.1 | – | > 70.1 | – | 46.5 | – | 46.8 | – | 34 | – | 30.6 | – | 45.9 | – | 33.7
N#Cc1c(N)nc(N2CCSCC2)c(C#N)c1-c1ccc(O)cc1 | 20.6 | 67.1 | 26.7 | > 100 | 12.6 | 28.3 | 19.8 | > 100 | 18.4 | 55.7 | – | – | 32.6 | > 100 | 22 | 52.7
CCOC(=O)c1csc(NC(=O)COc2cccc(/C=C3\CSc4ccccc4C3=O)c2)n1 | 2.46 | 5.66 | 1.26 | 18.2 | 1.33 | 3.9 | 0.246 | 1.52 | 0.908 | 2.44 | 1.63 | 3.04 | 0.166 | 0.363 | 0.581 | 1.49
C[C@@H]1CC[C@@H]2[C@@H](C)C[C@H]3[C@@H]4C(C)(C)OC(=O)[C@]4(C)C(=O)[C@@]23C1=O | – | > 100 | – | > 100 | – | > 100 | > 100 | > 100 | – | > 100 | – | > 100 | – | > 100 | > 100 | > 100
CO[C@@H]1[C@H]2[C@@H](C)c3ccoc3C[C@@H]2[C@@]2(C)CC[C@H](OC(=O)c3ccccc3)[C@](C)(C(=O)O)[C@]2(O)[C@@H]1OC(=O)c1ccccc1 | 11.7 | 35.3 | 7.46 | 15.6 | – | – | 16.4 | > 50 | 10.3 | 41.4 | 8.89 | 15.8 | > 50 | > 50 | 34.9 | > 50
COc1cc(-c2ccc(NC(=O)NC3CC3)c(OC)c2)ccc1NC(=O)NC1CC1 | > 43.6 | > 100 | 6.2 | > 60.7 | 28.8 | > 100 | 9.01 | > 100 | 4.36 | > 100 | 3.22 | > 100 | 5.83 | 52.9 | 4.94 | > 62.5
C/C=C(/C)C(=O)OC1C=C(CO)C(=O)C(OC(=O)C(C)(O)C(C)Cl)C1C(C)C (stereo not drawn) | 2.31 | 13.3 | 1.61 | 2.98 | 2.1 | 4.89 | 1.45 | 3.3 | 1.94 | 4.79 | 1.07 | 2.49 | – | – | 0.603 | 2.37
COC(=O)C(=O)C(C(=O)C(=O)Nc1ccc(C)cc1)c1nc2ccc(C(=O)c3ccccc3)cc2[nH]c1=O (stereo not drawn) | – | > 100 | – | > 100 | – | > 100 | – | > 100 | – | > 100 | – | > 100 | – | > 100 | – | > 100
CCCCCCN(C)Cc1ccc(OCCOc2ccc(CN(C)CCCCCC)cc2)cc1 | 1.38 | 3.16 | 1.35 | 2.9 | 1.48 | 3.15 | 1.24 | 2.8 | 1.23 | 2.76 | 1.01 | 2.21 | 1.33 | 3.13 | 0.944 | 2.25

Structure (SMILES) | GI50 (NCI/ADR-RES ovarian) [µM] | TGI (NCI/ADR-RES ovarian) [µM] | GI50 (CAKI-1 renal) [µM] | TGI (CAKI-1 renal) [µM] | GI50 (HOP-62 NSCLC) [µM] | TGI (HOP-62 NSCLC) [µM] | GI50 (PC-3 prostate) [µM] | TGI (PC-3 prostate) [µM] | GI50 (SF-295 CNS) [µM] | TGI (SF-295 CNS) [µM] | GI50 (HCT-116 colon) [µM] | TGI (HCT-116 colon) [µM] | GI50 (IGROV1 ovarian) [µM] | TGI (IGROV1 ovarian) [µM] | GI50 (NCI-H522 lung) [µM] | TGI (NCI-H522 lung) [µM]
NNC(=S)Nc1cccc(Cl)c1 | – | > 100 | – | > 100 | – | > 100 | – | > 100 | – | > 100 | – | > 100 | – | > 100 | – | > 100
COc1cc2ncn(-c3cc(OCc4ccccc4C(F)(F)F)c(C(C)=O)s3)c2cc1OC | > 25 | > 25 | > 25 | > 25 | > 25 | > 25 | > 25 | > 25 | > 25 | > 25 | > 25 | > 25 | > 25 | > 25 | > 25 | > 25
CCN(CC)CC(C)(C)C(=O)/C=C/c1ccc(/C=C/C(=O)C(C)(C)CN(CC)CC)cc1 | – | 6.59 | – | 1.99 | – | 5.01 | – | 1.51 | – | 2.54 | – | 0.74 | – | 7.04 | – | 0.194
Cc1cc(NNC(=O)c2ccccc2O)nc(Nc2nc3ccccc3o2)n1 | 1.3 | 7 | 1.73 | 14.3 | 0.865 | 13.5 | 0.912 | 13.7 | 0.846 | 14.4 | 1.06 | 7.47 | 1.3 | 12.2 | 2.5 | 12.9
Cc1nnc(-c2ccc(C)c(-c3ccc(C(=O)NCc4ccc(Cl)cc4)cc3)c2)o1 | 9.04 | > 25 | 11.8 | > 25 | 14.7 | > 25 | 8.82 | > 25 | 7.16 | > 25 | 12.6 | > 25 | > 16.3 | > 25 | 8.49 | > 25
CC1CC(C)C2=NOS3=C2C1=NO3 (stereo not drawn) | – | > 100 | – | > 100 | – | > 100 | – | > 100 | – | > 100 | – | > 100 | – | > 100 | – | > 100
O=C(Nc1cccnc1)c1ccc2ccc3ccc(C(=O)Nc4cccnc4)nc3c2n1 | > 100 | > 100 | 0.135 | > 100 | 0.13 | > 100 | 0.158 | > 100 | 0.252 | > 100 | – | – | 0.125 | > 100 | 0.525 | > 100
O=C(Nc1ccc2c(c1)OCO2)C(=O)c1c[nH]c2cc(F)ccc12 | 1.47 | 22.9 | 0.677 | > 100 | 5.11 | 21.9 | 3.33 | > 100 | 2.19 | 21.5 | 11.2 | > 100 | 12.6 | > 100 | – | –
Nc1nc(N)c(N=Nc2ccc(C(=O)O)c(O)c2)c(N)n1 | – | > 100 | – | > 100 | – | > 100 | – | > 100 | – | > 100 | – | > 100 | – | > 100 | – | > 100
O=S(=O)(Nc1ccc2ccccc2c1)c1ccc(-c2cnc(C3CC3)o2)cc1 | 0.713 | 5.81 | 0.539 | 38 | 1.3 | 17.1 | 1.69 | 19.1 | 0.452 | 5.46 | 0.746 | 12.7 | 1.08 | 14 | 0.766 | 14.5
COc1ccc(/C=C2\CC(C)CC3C2=NN(c2ccccc2)C3c2ccc(OC)c(OC)c2)cc1OC (stereo not drawn) | 2.71 | 9.51 | 6.47 | > 100 | 4.87 | 17 | 6.32 | > 100 | 3.59 | 57.6 | – | – | 5.37 | > 100 | 4.83 | > 100
CC(CCCC1SCC2NC(=O)NC21)C(=O)O (stereo not drawn) | – | > 100 | – | > 100 | – | > 100 | – | > 100 | – | > 100 | – | > 100 | – | > 100 | – | > 100
CC(C)CCC(=O)[C@@H](C)[C@H]1[C@@H](OC2OCC(O)C(O)C2NS(C)(=O)=O)C[C@H]2[C@@H]3CC=C4C[C@@H](O)CC[C@]4(C)[C@H]3CC[C@]12C (stereo partly drawn) | 9.82 | > 40 | 1.16 | 5.56 | 1.26 | 6.34 | 0.982 | 4.16 | 0.141 | 0.595 | 0.715 | 5.74 | 2.22 | > 40 | 5.05 | 12.5
O=C(Cn1c(C(=O)c2ccccc2)nc2ccccc21)c1ccc(F)cc1 | 3.47 | > 29.4 | – | > 30.9 | 9.44 | > 100 | 13.6 | > 100 | 9.44 | > 100 | 3.28 | > 100 | 10.9 | > 100 | 5.92 | > 62.9
CC1CCc2c(c(CC3CC(=O)NC(=O)C3)nn2-c2ccccc2)C1 (stereo not drawn) | – | > 100 | – | > 100 | – | > 100 | – | > 100 | – | > 100 | – | > 100 | – | > 100 | – | –
CC(=O)C1CCC2C3CC=C4CC(SC(=N)N)CCC4(C)C3CCC12C (stereo not drawn) | 2 | 5.28 | 1.68 | 4.24 | 1.93 | 3.6 | 1.55 | 4.2 | 1.49 | 2.99 | – | – | – | – | – | –
C=C1NC(=O)C(CC(C(=O)C(=O)Nc2c(C)cccc2C(C)(C)C)C(=O)c2ccc3ccccc3c2)C(=O)N1 (stereo not drawn) | – | > 100 | – | > 100 | – | – | – | > 100 | – | > 100 | – | > 100 | – | – | – | –

— PubChem BioAssay (NCI)
